Earlier results, collected in PMC12150326 (The Journal of Organic Chemistry, 2025).
“And” between values parts separate entries of the source, which are not always exact repeats. Equal values may be shown once. Read-outs that look alike come from different tables or passages of the source.

How the values were obtained:
Parameters in all cases: method as in NCI-60 database
[1] = tested on: A498; details: A498 ref NCI-60 database, cited from earlier work
[2] = tested on: SW-620; details: SW-620 ref NCI-60 database, cited from earlier work
[3] = tested on: A549/ATCC; details: A549/ATCC ref NCI-60 database, cited from earlier work
[4] = tested on: NCI-H23; details: NCI-H23 ref NCI-60 database, cited from earlier work
[5] = tested on: HOP-18; details: HOP-18 ref NCI-60 database; cited from earlier work
[6] = tested on: MALME-3M; details: MALME-3M ref NCI-60 database, cited from earlier work
[7] = tested on: SK-MEL-28; details: SK-MEL-28 ref NCI-60 database, cited from earlier work
[8] = tested on: K-562; details: K-562 ref NCI-60 database, cited from earlier work
[9] = tested on: DMS 273; details: DMS 273 ref NCI-60 database, cited from earlier work

In the case of `COc1cc2c(c(OC)c1OC)-c1ccc(OC)c(=O)cc1[C@@H](NC(C)=O)CC2` [Colchicine, (−)-Colchicine], the Log10LC50 [1] is listed as over -4.00 Molar, the Log10GI50 ([1]; listed as 757/1) is listed as -6.96 Molar and the Log10TGI ([1]; listed as 757/1) is listed as over -4.00 Molar. The Log10TGI ([1]; listed as 757/9) was -5.50 Molar, the Log10GI50 ([1]; listed as 757/21) was -7.68 Molar and -7.40 Molar and the GI50 [2] was 20 nM. For the same compound, the Log10GI50 [2] was -7.66 Molar, the Log10LC50 [2] was over -4.00 Molar and the Log10GI50 ([2]; listed as 757/1) was -7.46 Molar. The GI50 [3] was 260 nM, the Log10GI50 [3] was -6.58 Molar and the Log10LC50 [3] was over -4.00 Molar. For the same compound, the Log10TGI [3] was over -4.00 Molar, the Log10GI50 ([3]; listed as 757/9) was -6.57 Molar and the GI50 [4] was 30 nM. For the same compound, the Log10GI50 [4] was -7.54 Molar, the Log10LC50 ([4]; listed as 757/9) was -7.14 Molar and the Log10LC50 ([4]; listed as 757/21) was over -4.00 Molar. The Log10TGI ([4]; listed as 757/21) was over -4.00 Molar, the Log10GI50 [5] was over -4.00 Molar and the Log10LC50 [5] was over -4.00 Molar. The Log10TGI [5] was over -4.00 Molar, the Log10LC50 [6] was over -4.00 Molar and the Log10GI50 ([6]; listed as 757/1) was -7.28 Molar. The Log10GI50 ([6]; listed as 757/9) was -7.97 Molar, the Log10GI50 ([7]; listed as 757/1) was -7.02 Molar and the Log10LC50 ([7]; listed as 757/9) was -4.44 Molar. The Log10TGI ([7]; listed as 757/9) was -4.95 Molar, the Log10LC50 ([7]; listed as 757/21) was over -4.00 Molar and the Log10TGI ([7]; listed as 757/21) was over -4.00 Molar. The GI50 [8] was 20 nM, the Log10GI50 [8] was -7.79 Molar and the Log10LC50 [8] was over -4.00 Molar. For the same compound, the Log10TGI [8] was over -4.00 Molar, the Log10GI50 ([8]; listed as 757/1) was -7.47 Molar and the Log10GI50 ([8]; listed as 757/21) was < -8.00 Molar and -7.84 Molar and -7.79 Molar. The Log10LC50 [9] was over -4.00 Molar, the Log10TGI [9] was over -4.00 Molar and the Log10GI50 ([9]; listed as 757/1) was -7.51 Molar. The Log10GI50 ([9]; listed as 757/21) was < -8.00 Molar and -7.87 Molar.
